Entries after “also recorded” stand apart in the source; their conditions may differ.

In test [1] the test system is Aβ deposits in age-matched control / healthy brain tissue. In words: Chelator-promoted solubilization of Aβ from non-AD control brain tissue, Western blot. The format is biochemical, human. Particulars: chelator 2 mM. The text has this:
Using the same technique, zinc-mediated assembly of Aβ in normal brains was shown. FIGS. 20A and 20B show sedimentable Aβ deposits in healthy brain tissue. The effects of chelators in enhancing Aβ extraction from brain homogenates is also observed in normal tissue. FIG. 20A illustrates a western blot with anti-Aβ antibody of material extracted from an individual with no history of neurological disorder. T=TPEN, E=EGTA, B=bathocuproine.
(§1) Suitable quantities of gray matter from each subject were minced to serve as pools of homogenous tissue. […] To obtain the soluble fraction, the homogenates were centrifuged at 100,000×g for 30 min (Beckman J180, Beckman instruments, Fullerton, Calif.) and the supernatant collected in 1 ml aliquots and stored on ice or immediately frozen at −70° C. In each experiment, all protein was precipitated from 1 ml of supernatant from each treatment group using 1:5 ice cold 10% trichloracetic acid and pelleted in a bench top microfuge (Heraeus, Osteroder, Germany) at 10,000×g. The remaining pellet was frozen at −70° C.
Precipitated protein was subjected to SDS polyacrylamide gel electrophoresis (SDS-PAGE) on Novex pre-cast 10–20% Tris-Tricine gels followed by Western transfer onto 0.2 μm nitrocellulose membrane (Biorad, Hercules, Calif.). Aβ was detected using the WO2, G210 or G211 monoclonal antibodies (Ida, N. et al., J. Biol. Chem. 271:22908 (1996)) in combination with HRP-conjugated rabbit anti-mouse IgG (Dako, Denmark), and visualized using chemiluminescence (ECL, Amersham Life Science, Little Chalfont, Buckinghamshire, UK). Each gel included two or more lanes containing known quantities of synthetic Aβ which served as internal reference standards. […] For quantitation of Aβ in brain extracts, the internal reference standards of synthetic Aβ were utilized to produce standard curves from which values were interpolated.

Test [2] concerns Aβ deposits in AD brain tissue. In words: Chelator-promoted solubilization (extraction) of Aβ from AD brain homogenates, Western blot densitometry. Particulars: for Effect of Chelators (% change from control) upon extraction of Aβ: mean of 6 AD brain samples; for chelator concentration of peak Aβ solubilization (lower peak) / chelator concentration of peak Aβ solubilization (upper peak): titration curves. The format is biochemical, human. As to the method: 0.5 g of prefrontal cortex was dissected and homogenized in PBS±chelator as indicated. The homogenate was then centrifuged (100,000 g) and the supernatant removed, and a sample taken for western blot assay using anti-Aβ specific antibodies after Tricine PAGE. Densitometry was performed against synthetic peptide standards.
as §1
Precipitated protein was subjected to SDS polyacrylamide gel electrophoresis (SDS-PAGE) on Novex pre-cast 10–20% Tris-Tricine gels followed by Western transfer onto 0.2 μm nitrocellulose membrane (Biorad, Hercules, Calif.). […] Each gel included two or more lanes containing known quantities of synthetic Aβ which served as internal reference standards. Blot images were captured by a Relisys scanner with transparency adapter (Teco Information Systems, Taiwan, ROC) and densitometry conducted using the NIH Image 1.6 program (National Institutes for Health, USA., Modified for PC by Scion Corporation, Frederick, Md.), calibrated using a step diffusion chart. For quantitation of Aβ in brain extracts, the internal reference standards of synthetic Aβ were utilized to produce standard curves from which values were interpolated.
(In general: In western blotting, separated proteins are transferred to a membrane and probed.)

A short description of test [3]: Metal reduction assay, Fe^3+ (BP indicator). It is filed as biochemical. Particulars: Fe^3+ 10 μM; PBS pH 7.4; 1 hr, 37° C. As to the method:
(§2) The metal reduction assay was performed using a 96-well microtiter plate (Costar) based upon a modification of established protocols (Landers, J. W., et al., Amer. Clin. Path. 29:590 (1958); Landers. J. W. et al., Clinica Chimica Acta 3:329 (1958)). Polypeptides (10 μM) or Vitamin C (100 μM), metal ions (10 μM, Fe(NO3)3 or Cu(NO3)2), and reduced metal ion indicators, bathophenanthrolinedisulfonic acid (BP, for Fe^2+, Sigma, 200 μM) or bathocuproinedisulfonic acid (BC, for Cu^+, Sigma, […]), were coincubated in phosphate buffered saline (PBS), pH 7.4, for 1 hr at 37° C. The metal ion solutions were prepared by direct dilution in the buffer from their aqueous stocks purchased from National Institute of Standards and Technology (NIST). Absorbances were then measured at 536 nm (Fe^2+-BP complex) and 483 nm (Cu^+-BC complex), respectively, using a 96-well plate reader (SPECTRAmax 250, Molecular Devices, Calif.). In control samples, both metal ion and indicator were present to determine the background buffer signal. As a further control, both metal ion and peptide were present in the absence of indicator to estimate the contribution of light scattering due to turbidity to the absorbance reading at these wavelengths. The net absorbances (ΔA) at 536 nm or 483 nm were obtained by deducting the absorbances from these controls from the absorbances generated by the peptide and metal in the presence of the respective indicator.
The concentrations of reduced metal ions (Fe^2+ or Cu^+) were quantified based on the formula: Fe^2+ or Cu^+ (˜M)=A*10^6/(L*M), where L is the measured equivalent vertical pathlength for a well of 300 μL volume as described in the instrument's specifications manual (0.856 cm for Fe^2+; 1.049 cm for Cu^+); M is the known molecular absorbance (M^−1 cm^−1) which is 7124 (for Fe^2+-BP complex) or 2762 (for Cu^+-BC complex).

A short description of test [4]: Metal reduction assay, Cu^2+ (BC indicator). Conditions: Cu^2+ 10 μM; PBS pH 7.4; 1 hr, 37° C. The format is biochemical. As to the method:
as §2, with “Polypeptides” for “The metal reduction assay was performed using a 96-well microtiter plate (Costar) based upon a modification of established protocols (Landers, J. W., et al., Amer. Clin. Path. 29:590 (1958); Landers. J. W. et al., Clinica Chimica Acta 3:329 (1958)). Polypeptides”

Another test addresses Aβ1-42 (Homo sapiens, UniProt P05067). The test can be described thus: Effect of OH. scavengers on OH. generation by Aβ1-42 (TBARS). It is filed as biochemical. Particulars: scavenger 5 mM; Fe^3+ or Cu^2+. As to the method: (§3) FIGS. 16A and 16B are graphical representations showing production of the hydroxyl radical (OH.) from the incubation of Aβ in the presence of substoichiometric amounts of Fe^3+ or Cu^2+. […] All data points are means±SD, n=3.
(§4) The Thiobarbituric Acid-Reactive Substance (TBARS) assay for incubation mixtures with Fe^3+ or Cu^2+ was performed in a 96-well microtiter format modified from established protocols (Gutteridge et al. Biochim. Biophys. Acta 759: 38–41 (1983)). Aβ peptide species (10 μM) or Vitamin C (100 μM), were incubated with Fe^3+ or Cu^2+ (1 μM) and deoxyribose (7.5 mM, Sigma) in PBS, pH 7.4. Following incubation (37° C., 1 hour), glacial (17 M) acetic acid and 2-thiobarburic acid (1%, w/v in 0.05 M NaOH, Sigma) were added and heated (100° C., 10 min). The final mixtures were placed on ice for 1–3 minutes before absorbances at 532 nm were measured. The net absorbance change for each sample were obtained by deducting the absorbance from a control sample consisting of identical chemical components except for the Vitamin C or Aβ peptides.

Test [5] is described as follows: Effect of OH. scavengers on OH. generation by Vitamin C (TBARS). It is filed as biochemical. Particulars: scavenger 5 mM. As to the method:
as §3, §4

A short description of test [6]: Cu^+ generation / metal reduction (Example 2). It is filed as biochemical. Particulars: 10 μM in PBS; Cu^2+ 10 μM; 30 minutes, 37° C. As to the method: This method is modified from a protocol assaying serum copper and iron (Landers, J. W., et al., Amer. J. Clin. Path. 29:590 (1958)). It is based on the fact that there are optimal visible absorption wavelengths of 483 nm and 535 nm for Cu^+ complexed with bathocuproinedisulfonic (BC) anion and Fe^2+ coordinated by bathophenanthrolinedisulfonic (BP) anion, respectively.
Aβ (10 μM in PBS, pH 7.4 or 6.8, as shown) was incubated for 30 minutes (37° C.) in the presence of Cu^2+ 10 μM±Zn^2+ 10 μM). Cu^+ levels (n=3, ±SD) were assayed against a standard curve.

[7] abbreviates: chelator 2 mM, mean of AD subjects 1-6.

Chain of Aβ1-42 (P05067 672-713 limits assumed): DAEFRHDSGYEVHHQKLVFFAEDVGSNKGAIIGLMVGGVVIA

With `c1ccc(CN(CCN(Cc2ccccn2)Cc2ccccn2)Cc2ccccn2)nc1` [TPEN, N,N,N′,N′-tetrakis [2-pyridyl-methyl]ethylenediamine], the “Extractable Aβ (% of total), mean X” value is listed as “(16.7) %” in test [1] (mean of AC subjects 1-5) and “(4.6) %” in test [2] (setting [7]). For the same compound, the “Extractable Aβ, mean X” value in test [1] (mean of AC subjects 1-5) came out at 0.40 µg/g; in test [2] (setting [7]), 2.73 µg/g. Also, the “X C/PBS” value in test [1] (mean with chelator over mean with PBS, AC) is 1.6; in test [2] (chelator 2 mM, mean with chelator over mean with PBS, AD), 2.60. Besides, the “mean increase in solubilized Aβ over PBS alone” value in test [2] (6 AD brains) is on record as “around 2 fold”. The “Effect of Chelators (% change from control) upon extraction of Aβ” value in test [2] (chelator 0.1 mM) is reported as 182%; in test [2] (chelator 2.0 mM), 241%. The “chelator concentration of peak Aβ solubilization (lower peak)” value in test [2] is given as roughly 0.004 mM. For the same compound, the “chelator concentration of peak Aβ solubilization (upper peak)” value in test [2] was roughly 0.1 mM.
For `O=C1O[C@H]([C@@H](O)CO)C(O)=C1O` [Vitamin C, ascorbic acid], the “available Fe^3+ reduced” value in test [3] is listed as 15%. Further, the “available Cu^2+ reduced” value in test [4] was “reduced Cu^2+ efficiently”.
`OC[C@@H](O)[C@@H](O)[C@H](O)[C@H](O)CO` [Mannitol]: the “effect on generation of OH. by Aβ1-42” value on Aβ1-42 is on record as “neither were able to quench”. Besides, the “effect on generation of OH. by Vitamin C” value in test [5] (in the presence of Fe^3+) is recorded as “suppressed”.
For `C[S+](C)[O-]` [DMSO, dimethyl sulfoxide], the “effect on generation of OH. by Aβ1-42” value at Aβ1-42 is listed as “neither were able to quench”. The “effect on generation of OH. by Vitamin C” value in test [5] (in the presence of Cu^2+) and in test [5] (in the presence of Fe^3+) was “suppressed” each time.
Consider Aβ1-42: synthetic human Aβ1-42 peptide, for which the “available Fe^3+ reduced” value in test [3] was determined as 50%.
With Aβ1-28: Aβ fragment 1-28, purchased, the “available Fe^3+ reduced” value in test [3] is recorded as “did not significantly facilitate the reduction of Fe^3+”. The “available Cu^2+ reduced” value in test [4] is “reduced no Cu^2+”.
`O=C(O)CN(CCOCCOCCN(CC(=O)O)CC(=O)O)CC(=O)O` [EGTA]: in test [2] (chelator 0.1 mM), the “Effect of Chelators (% change from control) upon extraction of Aβ” value turned out to be 207%. Besides, the “effect on Aβ signal” value in test [2] (chelator 2 mM) is listed as “virtually abolished the signal for Aβ; also recorded: always produced a diminution in Aβ signal”. Further, the “Effect of Chelators (% change from control) upon extraction of Aβ” value in test [2] (chelator 2.0 mM) was determined as 46%. In test [2], the “chelator concentration of peak Aβ solubilization (lower peak)” value is reported as roughly 0.004 mM and the “chelator concentration of peak Aβ solubilization (upper peak)” value was roughly 0.1 mM.
In the case of “insulin: histidine-containing peptide that can bind copper and zinc”, in test [6], the “Cu^2+ reduction / redox reactivity” value is “no Cu^2+ reduction”. Besides, in test [3], the “available Fe^3+ reduced” value is reported as “did not significantly facilitate the reduction of Fe^3+”. Besides, the “available Cu^2+ reduced” value in test [4] is on record as 10%.

The values are drawn from patent US7045531B1, “Composition comprising a metal chelator and a method of treating amyloidosis by administering the metal chelator” (The General Hospital Corporation, priority 1997, dated 2006).
